In ChEMBL document CHEMBL5113444, “Synthesis of biotinylated-LPG as a chemical biology tool enabling discovery of ALCAT1 modulators” (Bioorg Med Chem Lett, 2022):
Activity calls are given as the source filed them. No cut-off for these calls is given here.

Key:
[1] = biological target: T1, Lysocardiolipin acyltransferase 1 (Homo sapiens) (UniProt Q6UWP7); experiment: Substrate activity at recombinant human ALCAT1 expressed in HEK293 cells using oleoyl-CoA as substrate assessed as acylated product formation by Rapidfire-triple quad mass spectrometry analysis; settings: filed as modulator
T1 sequence (whole entry): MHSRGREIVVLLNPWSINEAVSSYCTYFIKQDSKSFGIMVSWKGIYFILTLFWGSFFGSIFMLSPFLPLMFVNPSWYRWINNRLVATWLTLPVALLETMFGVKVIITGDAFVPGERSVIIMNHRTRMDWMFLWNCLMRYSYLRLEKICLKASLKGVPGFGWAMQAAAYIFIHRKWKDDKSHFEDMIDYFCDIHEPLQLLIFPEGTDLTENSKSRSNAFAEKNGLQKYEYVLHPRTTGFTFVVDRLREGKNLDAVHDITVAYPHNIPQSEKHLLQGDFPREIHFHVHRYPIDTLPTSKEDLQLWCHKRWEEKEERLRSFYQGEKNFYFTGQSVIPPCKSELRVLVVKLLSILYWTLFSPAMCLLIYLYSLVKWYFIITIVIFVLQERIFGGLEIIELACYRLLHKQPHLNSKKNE

[2] = biological target: T1, Lysocardiolipin acyltransferase 1 (Homo sapiens); experiment: Substrate activity at recombinant human ALCAT1 expressed in HEK293 cells using oleoyl-CoA as substrate assessed as biotinylated (BTN)-di-oleoyl LPG product formation by Rapidfire-triple quad mass spectrometry analysis; settings: filed as modulator, time <= 64.0 min, TDE = time-dependent effect

| Structure (SMILES) | Activity [1] | Activity [2] |
| --- | --- | --- |
| CCCCCCCCCCCCCCCC(=O)OC[C@H](O)COP(=O)(O)OC[C@H](O)CO | Active | – |
| O=C1N[C@H]2[C@H](CS[C@H]2CCCCC(=O)OCCCCCCC/C=C\CCCCCCCC(=O)OC[C@@H](O)COP(=O)(O)OCC(O)CO)N1 (some centres not stated) | – | Tde |
